# Reference: ChEMBL document CHEMBL1201862, “PubChem BioAssay data set” (2004)
#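 Dose response: 5 concentrations. Exposure: 48 h. Format: 96-well plates. Endpoint: linear interpolation; highest concentration if not reached. GI50 = concentration required for 50% inhibition of growth.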 Calls of active or inactive are those of the source. Cut-off read from the data, not from the text of the source: active = GI50 up to about 1.1 µM and inactive = higher. Peptide text beside a SMILES is read from it. * marks the point of attachment. Boc = CC(C)(C)OC(=O)*
# Experiments:
# Test in all cases: inhibition of tumour cell growth, NCI panel, 48 h
# MOLT-4 = system: MOLT-4
# SF-268 = system: SF-268
# KM12 = system: KM12
# RPMI-8226 = system: RPMI-8226
# MDA-MB-435 = system: MDA-MB-435
# Hs-578T = system: Hs-578T
# NCI-H226 = system: NCI-H226
# SW-620 = system: SW-620
# 786-0 = system: 786-0
# HL-60 = system: HL-60
# T47D = system: T47D
# NCI/ADR-RES = system: NCI/ADR-RES
# UO-31 = system: UO-31
# SF-539 = system: SF-539
# SK-MEL-2 = system: SK-MEL-2
# SNB-19 = system: SNB-19
# MDA-N = system: MDA-N
# UACC-257 = system: UACC-257
SMILES,GI50 (MOLT-4),GI50 (SF-268),GI50 (KM12),GI50 (RPMI-8226),GI50 (MDA-MB-435),GI50 (Hs-578T),GI50 (NCI-H226),GI50 (SW-620),GI50 (786-0),GI50 (HL-60),GI50 (T47D),GI50 (NCI/ADR-RES),GI50 (UO-31),GI50 (SF-539),GI50 (SK-MEL-2),GI50 (SNB-19),GI50 (MDA-N),GI50 (UACC-257)
CC1=CC(=O)C2=C(C)CCC3C(C)C(=O)OC3C12 (stereo not given),> 100 µM (inactive),> 100 µM (inactive),> 100 µM (inactive),> 100 µM (inactive),> 100 µM (inactive),> 100 µM (inactive),> 100 µM (inactive),> 100 µM (inactive),> 100 µM (inactive),> 100 µM (inactive),> 100 µM (inactive),> 100 µM (inactive),> 100 µM (inactive),> 100 µM (inactive),> 100 µM (inactive),> 100 µM (inactive),> 100 µM (inactive),> 100 µM (inactive)
NC(=O)C(=CNC(=S)Nc1ccc(Cl)c(Cl)c1)C(N)=O,48.3 µM (inactive),> 90.8 µM (inactive),55.1 µM (inactive),36.1 µM (inactive),44.8 µM (inactive),30.3 µM (inactive),0.374 µM (active),> 100 µM (inactive),> 71.1 µM (inactive),> 60.1 µM (inactive),12.2 µM (inactive),85.1 µM (inactive),16.5 µM (inactive),26.7 µM (inactive),> 81.3 µM (inactive),> 94.8 µM (inactive),47.4 µM (inactive),> 100 µM (inactive)
COc1cc(O)c2c(c1)C(O)C(O)CC1OC1C(=O)/C=C/CC(C)OC2=O (stereo not given),2.03 µM (inactive),10.4 µM (inactive),10.4 µM (inactive),3.1 µM (inactive),0.838 µM (active),10 µM (inactive),12.9 µM (inactive),0.412 µM (active),3.52 µM (inactive),0.216 µM (active),5.05 µM (inactive),3.68 µM (inactive),1.17 µM (inactive),3.99 µM (inactive),2.72 µM (inactive),19.8 µM (inactive),0.454 µM (active),0.0849 µM (active)
CN(C)CCOc1ccc2[nH]c(C(=O)N3CC(CCl)c4c3cc(NC(=O)OCc3ccc([N+](=O)[O-])cc3)c3ccccc43)cc2c1 (stereo not given),0.538 µM (active),1.37 µM (inactive),1.29 µM (inactive),0.493 µM (active),1.6 µM (inactive),2.3 µM (inactive),1.67 µM (inactive),1.19 µM (inactive),0.979 µM (active),0.269 µM (active),1.55 µM (inactive),1.34 µM (inactive),1.28 µM (inactive),1.69 µM (inactive),2.14 µM (inactive),1.71 µM (inactive),1.6 µM (inactive),14.6 µM (inactive)
C/C=C1/CN2CCC34c5ccccc5N(C)C23C2CC1C4(C(=O)OC)C(OC(C)=O)O2 (stereo not given),> 100 µM (inactive),> 100 µM (inactive),> 100 µM (inactive),> 100 µM (inactive),> 100 µM (inactive),> 100 µM (inactive),> 100 µM (inactive),> 100 µM (inactive),> 100 µM (inactive),> 100 µM (inactive),> 100 µM (inactive),> 100 µM (inactive),> 100 µM (inactive),> 100 µM (inactive),> 100 µM (inactive),> 100 µM (inactive),> 100 µM (inactive),> 100 µM (inactive)
Cc1ccc(Nc2c(C#N)[n+]([O-])c3cc(Cl)ccc3[n+]2[O-])cc1,4.8 µM (inactive),28.4 µM (inactive),12.6 µM (inactive),4.61 µM (inactive),44.7 µM (inactive),> 100 µM (inactive),28.2 µM (inactive),37.5 µM (inactive),4.8 µM (inactive),3.44 µM (inactive),> 100 µM (inactive),9.95 µM (inactive),82.4 µM (inactive),26.6 µM (inactive),> 100 µM (inactive),> 100 µM (inactive),> 53.8 µM (inactive),> 76.7 µM (inactive)
O=C1Cc2cn[nH]c2-c2ccccc2N1,20.1 µM (inactive),41.1 µM (inactive),33.2 µM (inactive),17.1 µM (inactive),22.3 µM (inactive),37.9 µM (inactive),> 75.9 µM (inactive),17.2 µM (inactive),41.8 µM (inactive),29.8 µM (inactive),36 µM (inactive),38.4 µM (inactive),32.7 µM (inactive),38.8 µM (inactive),26.9 µM (inactive),> 68.2 µM (inactive),35.2 µM (inactive),23.5 µM (inactive)
COc1cc2c3c(c1O)-c1c(ccc(OC)c1OC)CC3N(C)CC2 (stereo not given),> 100 µM (inactive),> 100 µM (inactive),> 100 µM (inactive),> 100 µM (inactive),> 100 µM (inactive),> 100 µM (inactive),> 100 µM (inactive),> 100 µM (inactive),> 100 µM (inactive),40.9 µM (inactive),> 100 µM (inactive),> 100 µM (inactive),> 100 µM (inactive),> 100 µM (inactive),> 100 µM (inactive),> 100 µM (inactive),> 100 µM (inactive),> 100 µM (inactive)
Cn1ccnc1Sc1ccc(/C=N/NC(=O)c2ccccc2[N+](=O)[O-])cc1[N+](=O)[O-],41.2 µM (inactive),> 100 µM (inactive),49.9 µM (inactive),38.7 µM (inactive),66.7 µM (inactive),> 100 µM (inactive),> 100 µM (inactive),98.2 µM (inactive),68.9 µM (inactive),47.1 µM (inactive),40.6 µM (inactive),> 100 µM (inactive),89.1 µM (inactive),> 100 µM (inactive),29 µM (inactive),> 100 µM (inactive),89.1 µM (inactive),87.5 µM (inactive)
CCNC(=S)N/N=C(/C)c1cccc(/C(C)=N\NC(=S)NCC)n1,0.365 µM (active),0.59 µM (active),0.593 µM (active),0.847 µM (active),2.82 µM (inactive),13.8 µM (inactive),0.333 µM (active),0.486 µM (active),1.5 µM (inactive),0.57 µM (active),2.72 µM (inactive),0.748 µM (active),0.968 µM (active),1.27 µM (inactive),3.9 µM (inactive),5.48 µM (inactive),1.23 µM (inactive),4.16 µM (inactive)
COC(Cc1ccccc1)NC(C)=O (stereo not given),> 100 µM (inactive),> 100 µM (inactive),> 100 µM (inactive),> 100 µM (inactive),> 100 µM (inactive),> 100 µM (inactive),> 100 µM (inactive),> 100 µM (inactive),> 100 µM (inactive),> 100 µM (inactive),> 100 µM (inactive),> 100 µM (inactive),> 100 µM (inactive),> 100 µM (inactive),> 100 µM (inactive),> 100 µM (inactive),> 100 µM (inactive),> 100 µM (inactive)
OCC(O)COCn1cc(Cn2ncc3c(NCc4ccccc4)ncnc32)nn1 (stereo not given),> 100 µM (inactive),17.7 µM (inactive),> 100 µM (inactive),> 100 µM (inactive),> 100 µM (inactive),25 µM (inactive),> 100 µM (inactive),> 100 µM (inactive),> 100 µM (inactive),> 100 µM (inactive),> 100 µM (inactive),> 100 µM (inactive),> 100 µM (inactive),> 100 µM (inactive),> 100 µM (inactive),> 100 µM (inactive),> 100 µM (inactive),> 100 µM (inactive)
C[C@H](CCC(=O)O)[C@H]1CC[C@H]2[C@@H]3[C@@H](O)C[C@@H]4C[C@H](O)CC[C@]4(C)[C@H]3CC[C@]12C,89.7 µM (inactive),> 100 µM (inactive),60 µM (inactive),38.1 µM (inactive),> 100 µM (inactive),59.8 µM (inactive),> 100 µM (inactive),> 100 µM (inactive),> 100 µM (inactive),63.5 µM (inactive),> 100 µM (inactive),38.7 µM (inactive),57.5 µM (inactive),> 100 µM (inactive),> 100 µM (inactive),> 100 µM (inactive),> 100 µM (inactive),92.9 µM (inactive)
CC(NC(=O)OC(C)(C)C)C(=O)NC(Cc1ccccc1)C(=O)NCC(=O)O (stereo not drawn) (Boc-Ala-Phe-Gly-OH; configuration not given here),> 100 µM (inactive),> 100 µM (inactive),> 100 µM (inactive),> 100 µM (inactive),> 100 µM (inactive),> 100 µM (inactive),> 100 µM (inactive),> 100 µM (inactive),> 100 µM (inactive),> 100 µM (inactive),> 100 µM (inactive),> 100 µM (inactive),> 100 µM (inactive),> 100 µM (inactive),> 100 µM (inactive),> 100 µM (inactive),> 100 µM (inactive),> 100 µM (inactive)
C/C(=C\c1csc(C)n1)[C@@H]1C[C@@H]2O[C@]2(C)CCC[C@H](C)[C@H](O)[C@@H](C)C(=O)C(C)(C)[C@@H](O)CC(=O)O1 [PATUPILONE],< 0.0001 µM (active),< 0.0001 µM (active),< 0.0001 µM (active),< 0.0001 µM (active),< 0.0001 µM (active),< 0.0001 µM (active),< 0.0001 µM (active),< 0.0001 µM (active),< 0.0001 µM (active),< 0.0001 µM (active),< 0.0001 µM (active),< 0.0001 µM (active),< 0.0001 µM (active),< 0.0001 µM (active),< 0.0001 µM (active),< 0.0001 µM (active),< 0.0001 µM (active),< 0.0001 µM (active)
